Converted amounts (≈) assume the structure as drawn. Read-outs that look alike come from different tables or passages of the source. Values belong to the compound of their own block, whether it stands above or below them.
Assays:
Assay type in all cases: physicochemical
[1] = Solubility in various media at 25° C. after 24 hours equilibration (HPLC); details: for solubility at 24 h: thermodynamic from solid, read-out: Conc. (solubility)
Description: (§1) 5-(5-((I R,2S)-2-fluorocyclopropyl)-1,2,4-oxadiazol-3-yl)-2-methylphenyl)imidazo[1,2-a]pyridine-3-carboxamide Form A (10 mg) in various media (1 mL) were mixed in a glass vial to make a slurry. Each sample was equilibrated at 25° C. for 24 hrs, and centrifuged at 13400 r.p.m. for 3 mins with 0.2 μm membrane to separate solids from liquids. The liquid was used to measure solubility by HPLC. Table 6 provides solubility data of 5-(5-((1R,2S)-2-fluorocyclopropyl)-1,2,4-oxadiazol-3-yl)-2-methylphenyl)imidazo[1,2-a]pyridine-3-carboxamide Form A at 25° C. after 24 hours equilibration and the final pH of the sample.
as §1, with “5-(5-((1R,2S)-2-fluorocyclopropyl)-1,2,4-oxadiazol-3-yl)-2-methylphenyl)imidazo[1,2-a]pyridine-3-carboxamide fumaric acid co-crystal” for “5-(5-((I R,2S)-2-fluorocyclopropyl)-1,2,4-oxadiazol-3-yl)-2-methylphenyl)imidazo[1,2-a]pyridine-3-carboxamide Form A”, “10” for “6”, “fumaric acid co-crystal” for “Form A”

[2] = Crystal modification after equilibration in water for 2 weeks (XRPD); details: after 2 weeks in water
Description: 5-(5-((1R,2S)-2-fluorocyclopropyl)-1,2,4-oxadiazol-3-yl)-2-methylphenyl)imidazo[1,2-a]pyrindine-3-carboxamide Form A (10 mg) was placed in a vial containing water for 2 weeks and the sample was then examined by XRPD for physical stability determination. It was observed that after 2 weeks in water 5-(5-((1R,2S)-2-fluorocyclopropyl)-1,2,4-oxadiazol-3-yl)-2-methylphenyl)imidazo[1,2-a]pyridine-3-carboxamide Form A converted to 5-(5-((1R,2S)-2-fluorocyclopropyl)-1,2,4-oxadiazol-3-yl)-2-methylphenyl)imidazo[1,2-a]pyridine-3-carboxamide Form HB.
5-(5-((1R,2S)-2-fluorocyclopropyl)-1,2,4-oxadiazol-3-yl)-2-methylphenyl)imidazo[1,2-a]pyrindine-3-carboxamide Fumaric acid co-crystal (10 mg) was placed in a vial containing water for 2 weeks and the sample was then examined by XRPD for physical stability determination. No change in XRPD was observed after 2 weeks in water.

[3] = Hygroscopicity by DVS at 25° C.
Description: The hygroscopicity of 5-(5-((1R,2S)-2-fluorocyclopropyl)-1,2,4-oxadiazol-3-yl)-2-methylphenyl)imidazo[1,2-a]pyridine-3-carboxamide Form A was evaluated by DVS at 25° C. and various RH values. The samples was examined by XRPD for physical stability determination.
The hygroscopicity of 5-(5-((1R,2S)-2-fluorocyclopropyl)-1,2,4-oxadiazol-3-yl)-2-methylphenyl)imidazo[1,2-a]pyridine-3-carboxamide fumaric acid co-crystal was evaluated by DVS at 25° C. and various RH values. The samples was examined by XRPD for physical stability determination.

[4] = Evaluation of closed container thermal degradation (solid state, 1 week; HPLC, XRPD, color); details: tight container; for Bulk (XRPD): 50° C. and 80° C.
Description: 5-(5-((1R,2S)-2-fluorocyclopropyl)-1,2,4-oxadiazol-3-yl)-2-methylphenyl)imidazo[1,2-a]pyridine-3-carboxamide Form A (10 mg) was placed in a closed vial at 50° C. and 80° C. chamber for 1 week. The initial purity of (5-(5-((1R,2S)-2-fluorocyclopropyl)-1,2,4-oxadiazol-3-yl)-2-methylphenyl)imidazo[1,2-a]pyridine-3-carboxamide Form A was 99.7%.
The samples were examined by XRPD for physical stability determination and by HPLC for chemical stability determination indicated by the presence of degradation products (DP).
The HPLC method used is described in Example 13-1. The color (CL) of the samples was evaluated by visual observation.
(5-(5-((1R,2S)-2-fluorocyclopropyl)-1,2,4-oxadiazol-3-yl)-2-methylphenyl)imidazo[1,2-a]pyridine-3-carboxamide fumaric acid co-crystal (10 mg) was placed in a closed vial at 50° C. and 80° C. chamber for 1 week. The initial purity of (5-(5-((1R,2S)-2-fluorocyclopropyl)-1,2,4-oxadiazol-3-yl)-2-methylphenyl)imidazo[1,2-a]pyridine-3-carboxamide Fumaric acid co-crystal was 99.7%.
The HPLC method used is described in Example 19-1. The color (CL) of the samples was evaluated by visual observation.

[5] = FaSSIF-V2, pH 6.5, 25° C., LOQ = Limit of Quantitation +/− 0.5 μg/ml
[6] = Water, 25° C., LOQ = Limit of Quantitation +/− 0.5 μg/ml
[7] = pH 4.7, acetate buffer, 25° C., LOQ = Limit of Quantitation +/− 0.5 μg/ml
[8] = pH 6.8, phosphate buffer, 25° C.
[9] = pH 6.8, phosphate buffer, 25° C., LOQ = Limit of Quantitation +/− 0.5 μg/ml
[10] = pH 10.0, borate buffer, 25° C., LOQ = Limit of Quantitation +/− 0.5 μg/ml

solubility at 24 h ([1]; 0.01N HCl, 25 °C, pH 2, simulated gastric fluid, pH 2.0 (0.01N HCl), 25° C.): 210 µg/mL (≈ 556 µM) | solubility at 24 h ([1]; 0.1N HCl, 25 °C, pH 1, simulated gastric fluid, pH 1.0 (0.1N HCl), 25° C.): 440 µg/mL (≈ 1170 µM) | Final pH ([1]; FaSSIF-V2, pH 6.5, 25° C.): 6.40 | Conc. (solubility) [1, 5]: LOQ | solubility at 24 h ([1]; FeSSIF-V2, 25 °C, pH 5.8, fessif, FeSSIF-V2, pH 5.8, 25° C.): 15 µg/mL (≈ 39.7 µM) | Final pH ([1]; FeSSIF-V2, pH 5.8, 25° C.): 5.63 | Conc. (solubility) ([1]; SGF pH 2.0, 25° C.): 640 µg/mL | Final pH ([1]; SGF pH 2.0, 25° C.): 2.10 | Final pH ([1]; Water, 25° C.): 7.91 | Conc. (solubility) [1, 6]: LOQ | Final pH ([1]; pH 1.0 (0.1N HCl), 25° C.): 1.20 | Final pH ([1]; pH 2.0 (0.01N HCl), 25° C.): 2.06 | Final pH ([1]; pH 4.7, acetate buffer, 25° C.): 4.78 | Conc. (solubility) [1, 7]: LOQ | Final pH [1, 8]: 6.77 | Conc. (solubility) [1, 9]: LOQ | Final pH ([1]; pH 10.0, borate buffer, 25° C.): 10.02 | Conc. (solubility) [1, 10]: LOQ | Crystal modification by XRPD [2]: Form HB | Desorporption. Weight % change ([3]; 0 % RH): 0.0000% | Sorption Weight % change ([3]; 0 % RH): 0.0000% | Desorporption. Weight % change ([3]; 10 % RH): 0.0167% | Sorption Weight % change ([3]; 10 % RH): 0.0167% | Desorporption. Weight % change ([3]; 20 % RH): 0.0501% | Sorption Weight % change ([3]; 20 % RH): 0.0234% | Desorporption. Weight % change ([3]; 30 % RH): 0.0768% | Sorption Weight % change ([3]; 30 % RH): 0.0468% | Desorporption. Weight % change ([3]; 40 % RH): 0.0802% | Sorption Weight % change ([3]; 40 % RH): 0.0601% | Desorporption. Weight % change ([3]; 50 % RH): 0.0735% | Sorption Weight % change ([3]; 50 % RH): 0.0568% | Desorporption. Weight % change ([3]; 60 % RH): 0.0969% | Sorption Weight % change ([3]; 60 % RH): 0.0868% | Desorporption. Weight % change ([3]; 70 % RH): 0.1369% | Sorption Weight % change ([3]; 70 % RH): 0.1169% | Desorporption. Weight % change ([3]; 80 % RH): 0.1803% | Sorption Weight % change ([3]; 80 % RH): 0.1436% | Desorporption. Weight % change ([3]; 90 % RH): 0.2338% | Sorption Weight % change ([3]; 90 % RH): 0.2104% | Bulk (XRPD) [4]: Bulk (XRPD): No change | CL (color) ([4]; 50° C.): No change | DP (%) degradation products, Bulk (HPLC) ([4]; 50° C.): 0.06% | CL (color) ([4]; 80° C.): No change | DP (%) degradation products, Bulk (HPLC) ([4]; 80° C.): 0.07%
SMILES: Cc1ccc(-c2noc([C@H]3C[C@@H]3F)n2)cc1NC(=O)c1cnc2ccccn12 [Form A, N-(5-(5-((1R,2S)-2-fluorocyclopropyl)-1,2,4-oxadiazol-3-yl)-2-methylphenyl)imidazo[1,2-a]pyridine-3-carboxamide]

Final pH ([1]; FaSSIF-V2, pH 6.5, 25° C.): 4.66 | Conc. (solubility) [1, 5]: LOQ | Conc. (solubility) ([1]; FeSSIF-V2, pH 5.8, 25° C.): 8 µg/mL | Final pH ([1]; FeSSIF-V2, pH 5.8, 25° C.): 4.75 | Conc. (solubility) ([1]; SGF pH 2.0, 25° C.): 180 µg/mL | Final pH ([1]; SGF pH 2.0, 25° C.): 1.94 | Final pH ([1]; Water, 25° C.): 4.26 | Conc. (solubility) [1, 6]: LOQ | Conc. (solubility) ([1]; pH 1.0 (0.1N HCl), 25° C.): 410 µg/mL | Final pH ([1]; pH 1.0 (0.1N HCl), 25° C.): 0.95 | Conc. (solubility) ([1]; pH 2.0 (0.01N HCl), 25° C.): 190 µg/mL | Final pH ([1]; pH 2.0 (0.01N HCl), 25° C.): 1.98 | Final pH ([1]; pH 4.7, acetate buffer, 25° C.): 4.51 | Conc. (solubility) [1, 7]: LOQ | Final pH [1, 8]: 5.79 | Conc. (solubility) [1, 9]: LOQ | Final pH ([1]; pH 10.0, borate buffer, 25° C.): 8.76 | Conc. (solubility) [1, 10]: LOQ | Crystal modification by XRPD [2]: No change | Desorporption. Weight % change ([3]; 0 % RH): 0.0000% | Sorption Weight % change ([3]; 0 % RH): 0.0000% | Desorporption. Weight % change ([3]; 10 % RH): 0.0153% | Sorption Weight % change ([3]; 10 % RH): −0.0019% | Desorporption. Weight % change ([3]; 20 % RH): 0.0307% | Sorption Weight % change ([3]; 20 % RH): 0.0038% | Desorporption. Weight % change ([3]; 30 % RH): 0.0939% | Sorption Weight % change ([3]; 30 % RH): 0.0383% | Desorporption. Weight % change ([3]; 40 % RH): 0.0996% | Sorption Weight % change ([3]; 40 % RH): 0.0632% | Desorporption. Weight % change ([3]; 50 % RH): 0.1130% | Sorption Weight % change ([3]; 50 % RH): 0.0843% | Sorption Weight % change ([3]; 60 % RH): 0.0958% | Desorporption. Weight % change ([3]; 70 % RH): 0.1590% | Sorption Weight % change ([3]; 70 % RH): 0.1322% | Desorporption. Weight % change ([3]; 80 % RH): 0.1897% | Sorption Weight % change ([3]; 80 % RH): 0.1590% | Desorporption. Weight % change ([3]; 90 % RH): 0.1935% | Sorption Weight % change ([3]; 90 % RH): 0.2107% | Bulk (XRPD) [4]: Bulk (XRPD): No change | CL (color) ([4]; 50° C.): No change | DP (%) degradation products, Bulk (HPLC) ([4]; 50° C.): 0.15% | CL (color) ([4]; 80° C.): No change | DP (%) degradation products, Bulk (HPLC) ([4]; 80° C.): 0.08%
SMILES: Cc1ccc(-c2noc([C@H]3C[C@@H]3F)n2)cc1NC(=O)c1cnc2ccccn12 [fumaric acid co-crystal, N-(5-(5-((1R,2S)-2-fluorocyclopropyl)-1,2,4-oxadiazol-3-yl)-2-methylphenyl)imidazo[1,2-a]pyridine-3-carboxamide fumaric acid co-crystal]

Source: US20220194936A1, “CRYSTALLINE FORMS OF N-(5-(5-((1R,2S)-2-FLUOROCYCLOPROPYL)-1,2,4-OXADIAZOL-3-YL)-2-METHYLPHENYL)IMIDAZO[1,2-A]PYRIDINE-3-CARBOXAMIDE” (Novartis AG, priority 2019, published 2022)
